Key:
S. aureus DSM 20231 [1] = assay: fitness (endpoint OD595 vs no drug) (fraction); higher = more growth
How it was run: (§1)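 Fitness is computed from the optical density at which cultures reach stationary phase, divided by the robust mean of no-drug control wells. Any value above 1 is set to 1. Cultures started at OD595 0.01 in 384-well plates with TSB, LB Lennox or CY at 37 °C, and OD595 was read every 30 min for 14 h against a first-reading background.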

S. aureus Newman [2] = assay: as above
How it was run: as §1

S. pneumoniae D39V [3] = assay: as above
How it was run: as §1

B. subtilis 168 [4] = assay: Bliss interaction score (quartile over a dose matrix) (fitness difference); higher = more antagonism (negative = synergy)
How it was run: (§2)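 Values were capped at 1 after dividing OD595 at stationary-phase entry by the plate's robust no-drug mean. This ratio is fitness, and single-drug fitness was inferred from the combination data. The Bliss score is observed minus product-expected fitness, given as quartiles over technical, biological and donor/recipient replicates.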

S. aureus DSM 20231 [5] = assay: as above
How it was run: as §2

S. aureus Newman [6] = assay: as above
How it was run: as §2

S. pneumoniae D39V [7] = assay: as above
How it was run: as §2

B. subtilis 168 [8] = assay: fitness (endpoint OD595 vs no drug) (fraction); higher = more growth
How it was run: as §1
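Wherever Bliss interaction score (quartile over a dose matrix) is given: first quartile when negative (synergy) and third quartile when positive (antagonism).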

CO/N=C(\C(=O)N[C@@H]1C(=O)N2C(C(=O)[O-])=C(C[N+]3(C)CCCC3)CS[C@H]12)c1csc(N)n1 [Cefepime] + Cn1nnc(-c2ccc(-c3ccc(N4C[C@H](CO)OC4=O)cc3F)cn2)n1 [Tedizolid]
fitness
Details	partner 0.03125 µg/mL	partner 0.0625 µg/mL	partner 0.125 µg/mL	partner 0.25 µg/mL	partner 0.5 µg/mL
S. aureus DSM 20231 [1], first compound 0.125 µg/mL	–	0.879	0.804	0.692	–
S. aureus DSM 20231 [1], first compound 0.25 µg/mL	–	0.796	0.738	0.601	–
S. aureus DSM 20231 [1], first compound 0.5 µg/mL	–	0.844	0.797	0.69	–
S. aureus Newman [2], first compound 0.125 µg/mL	–	0.858	0.837	–	–
S. aureus Newman [2], first compound 0.25 µg/mL	–	0.81	0.773	–	–
S. aureus Newman [2], first compound 0.5 µg/mL	–	0.728	0.717	–	–
S. pneumoniae D39V [3], first compound 0.007 µg/mL	–	–	0.953	0.642	0.129
S. pneumoniae D39V [3], first compound 0.0078 µg/mL	0.986	0.983	0.879	–	–
S. pneumoniae D39V [3], first compound 0.014 µg/mL	–	–	0.95	0.626	0.149
S. pneumoniae D39V [3], first compound 0.0155 µg/mL	0.969	0.974	0.895	–	–
S. pneumoniae D39V [3], first compound 0.028 µg/mL	–	–	0.937	0.652	0.105
S. pneumoniae D39V [3], first compound 0.031 µg/mL	0.971	0.948	0.888	–	–

Details	Bliss interaction score
B. subtilis 168 [4]	0.12
S. aureus DSM 20231 [5]	0.122
S. aureus Newman [6]	-0.0634
S. pneumoniae D39V [7]	0.237

CCCCCCCCCC(=O)N[C@@H](Cc1c[nH]c2ccccc12)C(=O)N[C@H](CC(N)=O)C(=O)N[C@@H](CC(=O)O)C(=O)N[C@@H]1C(=O)NCC(=O)N[C@@H](CCCN)C(=O)N[C@@H](CC(=O)O)C(=O)N[C@H](C)C(=O)N[C@@H](CC(=O)O)C(=O)NCC(=O)N[C@H](CO)C(=O)N[C@@H]([C@H](C)CC(=O)O)C(=O)N[C@@H](CC(=O)c2ccccc2N)C(=O)O[C@@H]1C [Daptomycin] + CC1=C\[C@@H](O)CC(=O)Cc2nc(co2)C(=O)N2CCC=C2C(=O)O[C@H](C(C)C)[C@H](C)/C=C/C(=O)NC\C=C\1 [Virginiamycin M1]
fitness
Details	first compound 0.125 µg/mL	first compound 0.25 µg/mL	first compound 0.5 µg/mL	first compound 1 µg/mL	first compound 2 µg/mL	first compound 4 µg/mL
B. subtilis 168 [8], partner 0.0625 µg/mL	0.946	0.924	0.894	–	–	–
B. subtilis 168 [8], partner 0.125 µg/mL	0.92	0.931	0.862	–	–	–
B. subtilis 168 [8], partner 0.25 µg/mL	0.93	0.934	0.891	–	–	–
S. aureus DSM 20231 [1], partner 0.0625 µg/mL	–	–	≥ 1	≥ 1	0.966	–
S. aureus DSM 20231 [1], partner 0.125 µg/mL	–	–	≥ 1	≥ 1	0.959	–
S. aureus DSM 20231 [1], partner 0.25 µg/mL	0.944	0.918	≥ 1	≥ 1	0.972	–
S. aureus Newman [2], partner 0.0625 µg/mL	≥ 1	≥ 1	0.981	–	–	–
S. aureus Newman [2], partner 0.125 µg/mL	≥ 1	≥ 1	0.994	–	–	–
S. aureus Newman [2], partner 0.25 µg/mL	0.984	0.999	0.975	–	–	–
S. pneumoniae D39V [3], partner 0.5 µg/mL	–	–	–	0.991	0.984	0.976
S. pneumoniae D39V [3], partner 1 µg/mL	–	–	–	0.992	≥ 1	0.997
S. pneumoniae D39V [3], partner 2 µg/mL	–	–	–	0.909	0.927	0.919

one replicate
Details	fitness
B. subtilis 168 [8], first compound 1 µg/mL, partner 0.0625 µg/mL	0.702
B. subtilis 168 [8], first compound 1 µg/mL, partner 0.125 µg/mL	0.698
B. subtilis 168 [8], first compound 1 µg/mL, partner 0.25 µg/mL	0.765
S. aureus DSM 20231 [1], first compound 0.125 µg/mL, partner 0.0625 µg/mL	0.898
S. aureus DSM 20231 [1], first compound 0.125 µg/mL, partner 0.125 µg/mL	≥ 1
S. aureus DSM 20231 [1], first compound 0.125 µg/mL, partner 0.5 µg/mL	0.906
S. aureus DSM 20231 [1], first compound 0.125 µg/mL, partner 1 µg/mL	0.887
S. aureus DSM 20231 [1], first compound 0.25 µg/mL, partner 0.0625 µg/mL	0.855
S. aureus DSM 20231 [1], first compound 0.25 µg/mL, partner 0.125 µg/mL	≥ 1
S. aureus DSM 20231 [1], first compound 0.25 µg/mL, partner 0.5 µg/mL	0.92
S. aureus DSM 20231 [1], first compound 0.25 µg/mL, partner 1 µg/mL	0.838
S. aureus DSM 20231 [1], first compound 0.5 µg/mL, partner 0.5 µg/mL	0.908
S. aureus DSM 20231 [1], first compound 0.5 µg/mL, partner 1 µg/mL	0.848
S. aureus Newman [2], first compound 0.5 µg/mL, partner 0.5 µg/mL	0.894
S. aureus Newman [2], first compound 0.5 µg/mL, partner 1 µg/mL	≥ 1
S. aureus Newman [2], first compound 0.5 µg/mL, partner 2 µg/mL	0.882
S. aureus Newman [2], first compound 1 µg/mL, partner 0.5 µg/mL	0.864
S. aureus Newman [2], first compound 1 µg/mL, partner 1 µg/mL	0.948
S. aureus Newman [2], first compound 1 µg/mL, partner 2 µg/mL	0.875
S. aureus Newman [2], first compound 2 µg/mL, partner 0.5 µg/mL	0.921
S. aureus Newman [2], first compound 2 µg/mL, partner 1 µg/mL	0.989
S. aureus Newman [2], first compound 2 µg/mL, partner 2 µg/mL	0.856
S. pneumoniae D39V [3], first compound 1 µg/mL, partner 0.15 µg/mL	0.892
S. pneumoniae D39V [3], first compound 1 µg/mL, partner 0.3 µg/mL	0.754
S. pneumoniae D39V [3], first compound 2 µg/mL, partner 0.15 µg/mL	0.893
S. pneumoniae D39V [3], first compound 2 µg/mL, partner 0.3 µg/mL	0.84
S. pneumoniae D39V [3], first compound 4 µg/mL, partner 0.15 µg/mL	0.924
S. pneumoniae D39V [3], first compound 4 µg/mL, partner 0.3 µg/mL	0.877

Details	Bliss interaction score
B. subtilis 168 [4]	-0.0543
S. aureus DSM 20231 [5]	0.0655
S. aureus Newman [6]	0.0243
S. pneumoniae D39V [7]	0.0768

CCCCCCCCCC(=O)N[C@@H](Cc1c[nH]c2ccccc12)C(=O)N[C@H](CC(N)=O)C(=O)N[C@@H](CC(=O)O)C(=O)N[C@@H]1C(=O)NCC(=O)N[C@@H](CCCN)C(=O)N[C@@H](CC(=O)O)C(=O)N[C@H](C)C(=O)N[C@@H](CC(=O)O)C(=O)NCC(=O)N[C@H](CO)C(=O)N[C@@H]([C@H](C)CC(=O)O)C(=O)N[C@@H](CC(=O)c2ccccc2N)C(=O)O[C@@H]1C [Daptomycin] + CCN(CC)CCOC(=O)c1ccc(N)cc1 [Procaine]
fitness
Details	first compound 0.125 µg/mL	first compound 0.25 µg/mL	first compound 0.5 µg/mL	first compound 1 µg/mL	first compound 2 µg/mL	first compound 4 µg/mL
B. subtilis 168 [8], partner 85.5 µg/mL	0.873	0.946	0.864	–	–	–
B. subtilis 168 [8], partner 171 µg/mL	0.9	0.898	0.799	–	–	–
B. subtilis 168 [8], partner 342 µg/mL	0.874	0.836	0.854	–	–	–
S. aureus DSM 20231 [1], partner 85.5 µg/mL	0.912	0.913	0.931	0.956	0.774	–
S. aureus DSM 20231 [1], partner 171 µg/mL	≥ 1	≥ 1	≥ 1	0.873	0.822	–
S. aureus DSM 20231 [1], partner 342 µg/mL	0.995	0.989	≥ 1	0.953	0.808	–
S. aureus Newman [2], partner 85.5 µg/mL	≥ 1	≥ 1	≥ 1	–	–	–
S. aureus Newman [2], partner 171 µg/mL	0.984	≥ 1	≥ 1	–	–	–
S. aureus Newman [2], partner 342 µg/mL	0.989	0.98	≥ 1	–	–	–
S. pneumoniae D39V [3], partner 85.5 µg/mL	–	–	–	0.994	0.961	0.945
S. pneumoniae D39V [3], partner 171 µg/mL	–	–	–	0.98	0.97	0.951
S. pneumoniae D39V [3], partner 342 µg/mL	–	–	–	0.942	0.906	0.893

B. subtilis 168 [8], first compound 1 µg/mL, one replicate
Details	fitness
partner 85.5 µg/mL	0.717
partner 171 µg/mL	0.685
partner 342 µg/mL	0.682

Details	Bliss interaction score
B. subtilis 168 [4]	-0.0699
S. aureus DSM 20231 [5]	0.0381
S. aureus Newman [6]	0.0445
S. pneumoniae D39V [7]	0.0859

From the supplement of paper PMC10627819
